Values of other authors as cited in patent publication US20150309031A2, “COMPOSITIONS AND METHODS FOR PROGNOSIS AND TREATMENT OF CANCER” (NOVAZOI THERANOSTICS, priority 2013, published 2015).

Tests used:
[1] = molecular target: T1, KIFC1/microtubule (MT) binary complex (Homo sapiens, UniProt Q9BW19); conditions: read-out: Ki (ATP-competitive, MT-noncompetitive inhibition of MT-stimulated KIFC1 enzymatic activity); cited from earlier work
T1 sequence (Q9BW19 1-673): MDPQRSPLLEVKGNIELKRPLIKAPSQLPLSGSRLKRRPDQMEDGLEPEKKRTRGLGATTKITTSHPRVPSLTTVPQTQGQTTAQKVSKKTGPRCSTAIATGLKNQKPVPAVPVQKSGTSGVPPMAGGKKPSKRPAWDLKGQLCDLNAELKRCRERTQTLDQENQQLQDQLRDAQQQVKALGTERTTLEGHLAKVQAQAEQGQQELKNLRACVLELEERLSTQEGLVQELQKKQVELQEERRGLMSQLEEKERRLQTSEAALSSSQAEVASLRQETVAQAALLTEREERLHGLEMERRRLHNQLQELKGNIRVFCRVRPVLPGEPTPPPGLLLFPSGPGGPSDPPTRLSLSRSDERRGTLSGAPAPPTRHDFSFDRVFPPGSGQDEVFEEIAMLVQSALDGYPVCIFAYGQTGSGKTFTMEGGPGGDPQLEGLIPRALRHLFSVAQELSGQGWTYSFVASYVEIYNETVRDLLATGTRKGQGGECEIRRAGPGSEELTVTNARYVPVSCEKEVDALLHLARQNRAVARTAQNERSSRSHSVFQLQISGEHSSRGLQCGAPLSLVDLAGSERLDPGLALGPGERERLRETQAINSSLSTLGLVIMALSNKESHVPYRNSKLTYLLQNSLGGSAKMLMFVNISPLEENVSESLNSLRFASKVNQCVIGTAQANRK

[2] = test system: BT-549 breast cancer cells; conditions: BT-549 cells with amplified centrosomes; cited from earlier work

CCCc1cc(C(=O)N[C@H](Cc2ccc(-c3cccc(OC(F)(F)F)c3)nc2)C(=O)N[C@@H]2CCNC2)sc1C [AZ82]
Ki [1]: 43 nM
centrosome declustering [2]: causes centrosome declustering
